Laboratory results as given in PubChem BioAssay AID1272 (The Scripps Research Institute Molecular Screening Center, 2008).
Active and inactive are the calls of the source. The rule behind the calls is not given here.

Target: Neuropeptide Y receptor type 2 (Homo sapiens) (UniProt P49146)
Test: NPY-Y2 receptor antagonist potency, dose response, cell-based (AID 1272)
Details: NPY-Y2 expressing cells, antagonist inhibition read-out

Chain of Neuropeptide Y receptor type 2 (Homo sapiens) (P49146 whole entry, looked up): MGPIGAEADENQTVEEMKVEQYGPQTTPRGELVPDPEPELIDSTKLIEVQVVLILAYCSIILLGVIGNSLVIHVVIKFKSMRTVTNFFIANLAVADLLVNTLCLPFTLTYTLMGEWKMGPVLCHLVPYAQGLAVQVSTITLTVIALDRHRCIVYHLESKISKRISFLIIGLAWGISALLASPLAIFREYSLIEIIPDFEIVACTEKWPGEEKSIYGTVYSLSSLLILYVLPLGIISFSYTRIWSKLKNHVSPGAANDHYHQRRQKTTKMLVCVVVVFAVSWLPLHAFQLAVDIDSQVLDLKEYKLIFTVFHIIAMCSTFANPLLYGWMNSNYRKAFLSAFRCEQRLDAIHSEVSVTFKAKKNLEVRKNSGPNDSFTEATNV

In the case of `Cc1cccc(CSCCNC(=O)COc2ccc(Cl)cc2)c1`, the IC50 is reported as < 35 µM (inactive).
